In the supplement of paper PMC10307832:

Assays:
Assay in all cases: relative viability (nuclei count vs DMSO), 5 days (fraction); higher = more cells survive
Midostaurin + Tozasertib = compound: CO[C@@H]1[C@H](N(C)C(=O)c2ccccc2)C[C@H]2O[C@]1(C)n1c3ccccc3c3c4c(c5c6ccccc6n2c5c31)C(=O)NC4 [Midostaurin] + Cc1cc(Nc2cc(N3CCN(C)CC3)nc(Sc3ccc(NC(=O)C4CC4)cc3)n2)n[nH]1 [Tozasertib] (partner 0.1 µM)
Procedure, shortened: (§1)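 The day after seeding in 1536-well plates, lung cancer cell lines were treated by pin tool with a single drug, or with a fixed anchor-drug dose together with five library-drug doses (not always all listed) in √10 steps. After 5 days, a combined fix-and-stain solution (final 0.05% Triton X-100, 1% formaldehyde, 1 ug/ml Hoechst) was added. Nuclei counted on 4× images gave relative viability as treated counts over vehicle counts, reported as the median of duplicate plates.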

Midostaurin + Olaparib = compound: CO[C@@H]1[C@H](N(C)C(=O)c2ccccc2)C[C@H]2O[C@]1(C)n1c3ccccc3c3c4c(c5c6ccccc6n2c5c31)C(=O)NC4 [Midostaurin] + O=C(c1cc(Cc2n[nH]c(=O)c3ccccc23)ccc1F)N1CCN(C(=O)C2CC2)CC1 [Olaparib] (partner 8 µM)
Procedure, shortened: as §1

[1] = compound: COc1cc(-c2nn([C@H]3CC[C@H](N4CCN(C(C)=O)CC4)CC3)c3ncnc(N)c23)ccc1NC(=O)c1cc2ccccc2n1C + CC(=O)c1c(C)c2cnc(Nc3ccc(N4CCNCC4)cn3)nc2n(C2CCCC2)c1=O [Palbociclib] (partner 0.5 µM)
Procedure, shortened: as §1

[2] = compound: COc1cc(-c2nn([C@H]3CC[C@H](N4CCN(C(C)=O)CC4)CC3)c3ncnc(N)c23)ccc1NC(=O)c1cc2ccccc2n1C + CC1(C)CCC(c2ccc(Cl)cc2)=C(CN2CCN(c3ccc(C(=O)NS(=O)(=O)c4ccc(N[C@H](CCN5CCOCC5)CSc5ccccc5)c(S(=O)(=O)C(F)(F)F)c4)cc3)CC2)C1 [Navitoclax] (partner 0.5 µM)
Procedure, shortened: as §1

[3] = compound: COc1cc(-c2nn([C@H]3CC[C@H](N4CCN(C(C)=O)CC4)CC3)c3ncnc(N)c23)ccc1NC(=O)c1cc2ccccc2n1C + C[C@]1(O)C[C@@H](c2nc(-c3ccc4ccc(-c5ccccc5)nc4c3)c3c(N)nccn32)C1 [Linsitinib] (partner 1 µM)
Procedure, shortened: as §1

Row | Cell Line | relative viability (Midostaurin + Tozasertib; first compound 0.01 µM) | relative viability (Midostaurin + Tozasertib; first compound 0.03162 µM) | relative viability (Midostaurin + Tozasertib; first compound 0.1 µM) | relative viability (Midostaurin + Tozasertib; first compound 0.3162 µM) | relative viability (Midostaurin + Olaparib; first compound 0.01 µM) | relative viability (Midostaurin + Olaparib; first compound 0.03162 µM) | relative viability (Midostaurin + Olaparib; first compound 0.1 µM) | relative viability (Midostaurin + Olaparib; first compound 0.3162 µM) | relative viability ([1]; first compound 0.0128 µM) | relative viability ([1]; first compound 0.04048 µM) | relative viability ([1]; first compound 0.128 µM) | relative viability ([1]; first compound 1.28 µM) | relative viability ([2]; first compound 0.0128 µM) | relative viability ([2]; first compound 0.04048 µM) | relative viability ([2]; first compound 0.128 µM) | relative viability ([2]; first compound 1.28 µM) | relative viability ([3]; first compound 0.0128 µM) | relative viability ([3]; first compound 0.04048 µM) | relative viability ([3]; first compound 0.128 µM) | relative viability ([3]; first compound 1.28 µM)
1 | NCI-H1755 | 0.521 | 0.614 | 0.535 | 0.547 | 0.864 | 0.884 | 0.783 | 0.779 | 0.54 | 0.467 | 0.458 | 0.402 | 1.09 | 1.01 | 0.927 | 0.803 | 1.12 | 0.966 | 0.92 | 0.939
2 | HCC-78 | 0.421 | 0.422 | 0.408 | 0.366 | 0.836 | 0.753 | 0.677 | 0.511 | 0.479 | 0.433 | 0.465 | 0.381 | 0.947 | 0.901 | 0.87 | 0.621 | 0.573 | 0.643 | 0.513 | 0.436
3 | NCI-H322M | 0.474 | 0.477 | 0.481 | 0.544 | 0.703 | 0.72 | 0.698 | 0.779 | 0.426 | 0.516 | 0.434 | 0.394 | 1.36 | 1.09 | 1.18 | 1.12 | 0.9 | 0.909 | 0.767 | 0.803
4 | NCI-H3122 | 0.365 | 0.283 | 0.386 | 0.336 | 0.655 | 0.614 | 0.573 | 0.723 | 0.197 | – | 0.169 | 0.189 | 1.03 | – | 1.01 | 0.869 | 1.1 | – | 1 | 0.875
5 | COR-L23 | 0.204 | 0.198 | 0.166 | 0.152 | 0.386 | 0.269 | 0.279 | 0.255 | 0.324 | 0.253 | 0.313 | 0.24 | 0.972 | 1.29 | 0.9 | 0.982 | 0.866 | 0.96 | 0.992 | 0.924
6 | NCI-H2087 | 0.249 | 0.303 | 0.225 | 0.207 | 0.585 | 0.539 | 0.635 | 0.608 | 0.244 | – | 0.237 | 0.222 | 1.03 | 0.908 | 1.02 | 1.2 | 1.1 | 0.875 | 1.12 | 1.11
7 | LC-2-ad | 0.509 | 0.545 | 0.52 | 0.422 | 0.738 | 0.688 | 0.673 | 0.691 | 0.543 | 0.508 | 0.502 | 0.511 | 0.509 | 0.429 | 0.473 | 0.389 | 0.659 | 0.846 | 0.835 | 0.681
8 | NCI-H1915 | 0.46 | 0.435 | 0.404 | 0.412 | 0.257 | 0.249 | 0.243 | 0.224 | 0.578 | 0.441 | 0.495 | 0.44 | 0.851 | 0.755 | 0.758 | 0.706 | 1.17 | 1.13 | 1.11 | 1.03
9 | NCI-H1793 | 0.38 | 0.39 | 0.313 | 0.184 | 0.923 | 0.804 | 0.644 | 0.431 | 0.367 | 0.342 | 0.261 | 0.239 | 0.5 | 0.571 | 0.332 | 0.258 | 0.99 | 0.979 | 0.712 | 0.545
10 | NCI-H2023 | 0.408 | 0.316 | 0.29 | 0.171 | 0.494 | 0.505 | 0.396 | 0.246 | 0.436 | 0.358 | 0.318 | 0.293 | 0.999 | 1.06 | 1.02 | 0.835 | 0.7 | 0.641 | 0.624 | 0.531
11 | COR-L 105 | 0.404 | 0.356 | 0.341 | 0.313 | 0.829 | 0.626 | 0.527 | 0.616 | 0.388 | 0.474 | 0.4 | 0.302 | 0.728 | 0.813 | 0.78 | 0.456 | 1.04 | 0.77 | 0.898 | 0.549
12 | RERF-LC-KJ | 0.47 | 0.464 | 0.433 | 0.321 | 0.819 | 0.839 | 0.814 | 0.716 | 1.08 | 1.19 | 1.07 | 0.972 | 0.829 | 1.09 | 0.94 | 0.837 | 0.895 | 0.882 | 0.878 | 0.793
13 | LXF-289 | 0.23 | 0.23 | 0.178 | 0.176 | 1.13 | 1.05 | 1.04 | 0.992 | 0.673 | 0.648 | 0.549 | 0.706 | 1.01 | 0.886 | 0.967 | 0.959 | 1.02 | 0.927 | 0.939 | 1.08
14 | PC-14 | 0.616 | 0.574 | 0.598 | 0.491 | 0.328 | 0.281 | 0.206 | 0.199 | 0.515 | 0.503 | 0.486 | 0.433 | 1.05 | 1.05 | 0.987 | 1.21 | 0.929 | 1.01 | 0.938 | 0.98
15 | NCI-H1666 | 0.629 | 0.572 | 0.596 | 0.488 | 0.709 | 0.708 | 0.694 | 0.673 | 0.678 | 0.661 | 0.6 | 0.622 | 0.883 | 0.805 | 0.806 | 0.955 | 0.804 | 0.816 | 0.733 | 0.771
16 | NCI-H2085 | 0.807 | 0.764 | 0.663 | 0.582 | 0.76 | 0.708 | 0.834 | 0.711 | 0.491 | 0.48 | 0.455 | 0.441 | 1.16 | 1.23 | 1.19 | 1.01 | 0.832 | 0.932 | 0.834 | 0.851
17 | NCI-H1734 | 0.239 | 0.276 | 0.294 | 0.267 | 0.603 | 0.562 | 0.62 | 0.69 | 0.37 | 0.332 | 0.335 | 0.276 | 0.879 | 0.719 | 0.744 | 0.736 | 0.847 | 0.772 | 0.873 | 0.717
18 | NCI-H2126 | 0.861 | 0.8 | 0.844 | 0.857 | 0.813 | 0.901 | 0.853 | 0.779 | 0.35 | 0.372 | 0.344 | 0.329 | 0.858 | 0.863 | 0.79 | 0.641 | 0.825 | 0.765 | 0.701 | 0.537
19 | EMC-BAC-2 | 0.267 | 0.296 | 0.243 | 0.273 | 0.459 | 0.497 | 0.411 | 0.374 | 0.551 | 0.582 | 0.528 | 0.514 | 1.19 | 1.08 | 1.15 | 1.05 | 0.869 | 0.806 | 0.815 | 0.521
20 | NCI-H1993 | 0.595 | 0.606 | 0.545 | 0.599 | 1.08 | 0.791 | 1.01 | 1.11 | 0.616 | 0.58 | 0.617 | 0.605 | 0.898 | 0.886 | 0.873 | 0.709 | 0.91 | 0.691 | 0.698 | 0.611
21 | NCI-H520 | 0.434 | 0.411 | 0.457 | 0.407 | 0.32 | 0.318 | 0.266 | 0.249 | 0.197 | 0.227 | 0.206 | 0.12 | 1.16 | 1.06 | 0.995 | 0.861 | 0.715 | 0.795 | 0.9 | 0.683
22 | NCI-H647 | 0.411 | 0.35 | 0.293 | 0.18 | 0.495 | 0.688 | 0.455 | 0.316 | 0.391 | 0.382 | 0.4 | 0.216 | 1.29 | 1.18 | 1.06 | 0.669 | 1.3 | 1.36 | 1.14 | 0.785
23 | SK-LU-1 | 0.337 | 0.449 | 0.278 | 0.202 | 0.471 | 0.439 | 0.443 | 0.346 | 0.41 | 0.369 | 0.357 | 0.249 | 0.95 | 0.801 | 0.544 | 0.567 | 1.23 | 1.26 | 0.839 | 0.558
24 | NCI-H2009 | 0.711 | 0.707 | 0.563 | 0.426 | 0.696 | 0.668 | 0.611 | 0.512 | 0.172 | 0.148 | 0.219 | 0.179 | 1.16 | 1.16 | 1.2 | 1.14 | 1.2 | 1.18 | 1.2 | 0.931
25 | LOU-NH91 | 0.722 | 0.608 | 0.653 | 0.642 | 0.922 | 0.828 | 0.88 | 0.943 | 0.536 | 0.533 | 0.529 | 0.454 | 0.658 | 0.661 | 0.768 | 0.638 | 0.889 | 1.02 | 1.02 | 0.833
26 | NCI-H2405 | 0.752 | 0.677 | 0.742 | 0.585 | 0.841 | 0.827 | 0.838 | 0.861 | 0.551 | 0.396 | 0.486 | 0.269 | 0.744 | 0.639 | 0.729 | 0.265 | 0.886 | 0.541 | 0.721 | 0.326
27 | LCLC-97TM1 | 0.21 | 0.218 | 0.247 | 0.257 | 0.52 | 0.374 | 0.32 | 0.464 | 0.22 | 0.194 | 0.241 | 0.191 | 0.464 | 0.388 | 0.385 | 0.389 | 0.183 | 0.205 | 0.173 | 0.238
